Read-outs that look alike come from different tables or passages of the source.
Tests used:
[1] = system: P. falciparum male gametocytes; assay: P. falciparum Dual Gamete Formation Assay (PfDGFA), male readout (exflagellation); assay type: cell-based, Plasmodium falciparum NF54; settings: for inhibition at 2 µM: 24h preincubation with gametocytes
How it was run: (§1)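 First, day-14 P. falciparum NF54 gametocytes receive compound for 24 h at 37°C in 1% O2/3% CO2. Next, ookinete medium with Cy3 anti-Pfs25 triggers gametogenesis at 28°C and male exflagellation is imaged. Finally, after 24 h in the dark, Cy3-labelled females are imaged.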

[2] = system: P. falciparum male gametocytes; assay: PhIDDLI timecourse assay, compound added at timepoints after triggering male gametogenesis; assay type: cell-based, Plasmodium falciparum NF54
[3] = system: HepG2 cells; assay: HepG2 cytotoxicity counter-screen
[4] = system: P. falciparum female gametocytes; assay: P. falciparum Dual Gamete Formation Assay (PfDGFA), female readout (Pfs25-positive female gametes); assay type: cell-based, Plasmodium falciparum NF54; settings: for inhibition at 2 µM: 24h preincubation with gametocytes
How it was run: as §1

[5] = system: cyclin-dependent protein kinase 6 (PfPK6); set-up: method as in PMID 26934697; settings: cited from earlier work
[6] = system: calcium-dependent protein kinase 1 (PfCDPK1); settings: cited from earlier work
[7] = system: P. falciparum protein kinase G (PfPKG); settings: cited from earlier work

Compound: CNC(=O)c1ccccc1Nc1nc(Nc2ccc(N3CCN(C)CC3)nc2)ncc1C.Cl [TC11]
- Cytotox ratio Pf Male [1]: 13.8
- IC50 ([1]; this study, read-out: Pf DGFA IC50 MALE): 0.25 µM
- cells showing apparent DNA replication ([2]; compound added concurrent with induction, fixed 20 min post-induction, DMSO control 61.4%): 18.6%
- effect on exflagellation ([2]; compound added concurrent with triggering male gametogenesis or 2 min later): substantially reduced
- amounts of cells showing evidence of DNA replication ([2]; compound added during the first 2 min of male gametogenesis): markedly reduced
- effect on exflagellation ([2]; compound added later than 2 min post-induction (up to 10 min)): inhibited exflagellation
- Mean TOX ([3]; mean of the HepG2 TOX50 values): 3.44 µM
- Cytotox ratio Pf Female [4]: 0.344
- activity against recombinant PfPK6 [5]: active
- activity against recombinant PfCDPK1 ([6]; enzymatic assay): active

Compound: CC(C)(CN)c1nc(-c2ccc(Cl)c(O)c2)c(-c2ccncc2)[nH]1.Cl [TCMDC-140369]
- inhibition at 2 µM ([1]; Plasmodium falciparum, average of replicates, read-out: Average inhibition male (%)): 95%
- inhibition at 2 µM ([1]; Plasmodium falciparum, replicate R1, read-out: % inhibition male (individual replicates) R1): 96%
- inhibition at 2 µM ([1]; Plasmodium falciparum, replicate R2, read-out: % inhibition male (individual replicates) R2): 97.9%
- inhibition at 2 µM ([1]; Plasmodium falciparum, replicate R3, read-out: % inhibition male (individual replicates) R3): 95.1%
- inhibition at 2 µM ([1]; Plasmodium falciparum, replicate R4, read-out: % inhibition male (individual replicates) R4): 90.9%
- IC50 ([1]; Plasmodium falciparum, PfDGFA, 24 h incubation with gametocytes before induction, exflagellation readout, read-out: Male IC50): 0.91 µM
- Tox50 ([3]; cytotoxic activity against HepG2 cells): 17.63 µM
- inhibition at 2 µM ([4]; Plasmodium falciparum, average of replicates, read-out: Average inhibition female (%)): 51.4%
- inhibition at 2 µM ([4]; Plasmodium falciparum, replicate R1, read-out: % inhibition female (individual replicates) R1): 22.1%
- inhibition at 2 µM ([4]; Plasmodium falciparum, replicate R2, read-out: % inhibition female (individual replicates) R2): 80%
- inhibition at 2 µM ([4]; Plasmodium falciparum, replicate R3, read-out: % inhibition female (individual replicates) R3): 27.7%
- inhibition at 2 µM ([4]; Plasmodium falciparum, replicate R4, read-out: % inhibition female (individual replicates) R4): 75.6%
- IC50 ([4]; Plasmodium falciparum, PfDGFA, 24 h incubation with gametocytes before induction, female gamete readout, read-out: Female IC50): 0.27 µM
- PfPKG inhibition [7]: PfPKG inhibitor
- activity against PfCDPK1 [6]: additional activity
